Where “and” joins values, the source holds several entries; their conditions need not be identical. Equal values may be shown once.
Conditions: 283.15 K, Liquid, Vibrating tube method

CCCCCC(=O)OCC(COC(=O)CCCCC)(COC(=O)CCCCC)COC(=O)CCCCC [pentaerythritol tetrahexanoate]
Conditions	mass density
15225 kPa	1012.8 kg/m3
15241 kPa	1012.9 kg/m3
15260 kPa	1012.8 kg/m3
15276 kPa	1012.7 kg/m3
15292 kPa	1012.8 kg/m3
15311 kPa	1012.8 kg/m3
15327 kPa	1013 kg/m3
15343 kPa	1012.8 kg/m3
15363 kPa	1012.9 kg/m3
15379 kPa	1013.1 kg/m3
15395 kPa	1012.9 kg/m3
15412 kPa	1013 kg/m3
15432 kPa	1012.9 kg/m3
15448 kPa	1012.9 kg/m3
15467 kPa	1013.1 kg/m3
15483 kPa	1013.1 kg/m3
15500 kPa	1013.1 kg/m3
15519 kPa	1012.8 kg/m3
15536 kPa	1013.1 kg/m3
15552 kPa	1012.9 kg/m3
15572 kPa	1013 kg/m3
15589 kPa	1013 kg/m3
15606 kPa	1013 kg/m3
15626 kPa	1013 kg/m3
15642 kPa	1013.1 kg/m3
15659 kPa	1012.9 kg/m3
15679 kPa	1013 kg/m3
15696 kPa	1013.1 kg/m3
15713 kPa	1013.1 kg/m3
15733 kPa	1013 kg/m3
15750 kPa	1013.1 kg/m3
15767 kPa	1013.1 kg/m3
15788 kPa	1013 kg/m3
15805 kPa	1013.2 kg/m3
15823 kPa	1013.2 kg/m3
15841 kPa	1013.2 kg/m3
15861 kPa	1013.1 kg/m3
15878 kPa	1013.2 kg/m3
16066 kPa	1013.4 kg/m3
16083 kPa	1013.3 kg/m3
16104 kPa	1013.4 kg/m3
16122 kPa	1013.3 kg/m3
16139 kPa	1013.3 kg/m3
16157 kPa	1013.3 kg/m3
16178 kPa	1013.2 kg/m3
16195 kPa	1013.3 kg/m3
16214 kPa	1013.4 kg/m3
16230 kPa	1013.4 kg/m3
16247 kPa	1013.2 kg/m3
16266 kPa	1013.4 kg/m3
16282 kPa	1013.4 kg/m3
16299 kPa	1013.5 kg/m3
16315 kPa	1013.4 kg/m3
16334 kPa	1013.3 kg/m3
16351 kPa	1013.4 kg/m3
16368 kPa	1013.6 kg/m3
16388 kPa	1013.5 kg/m3
16404 kPa	1013.4 kg/m3
16421 kPa	1013.5 kg/m3
16441 kPa	1013.4 kg/m3
16457 kPa	1013.5 kg/m3
16474 kPa	1013.5 kg/m3
16491 kPa	1013.6 kg/m3
16511 kPa	1013.5 kg/m3
16528 kPa	1013.6 kg/m3
16545 kPa	1013.6 kg/m3
16565 kPa	1013.7 kg/m3
16582 kPa	1013.5 kg/m3
16598 kPa	1013.5 kg/m3
16619 kPa	1013.6 kg/m3
16636 kPa	1013.6 kg/m3
16653 kPa	1013.6 kg/m3
16673 kPa	1013.6 kg/m3
16690 kPa	1013.7 kg/m3
16707 kPa	1013.6 kg/m3
16727 kPa	1013.6 kg/m3
16745 kPa	1013.6 kg/m3
16762 kPa	1013.6 kg/m3
16782 kPa	1013.6 kg/m3
16800 kPa	1013.6 kg/m3
16817 kPa	1013.7 kg/m3
16837 kPa	1013.7 kg/m3
16854 kPa	1013.6 kg/m3
16872 kPa	1013.7 kg/m3
16893 kPa	1013.7 kg/m3
16911 kPa	1013.8 kg/m3
16929 kPa	1013.8 kg/m3
16951 kPa	1013.7 kg/m3
16969 kPa	1013.8 kg/m3
16988 kPa	1013.8 kg/m3
17008 kPa	1013.8 kg/m3
17031 kPa	1013.9 kg/m3
17050 kPa	1013.8 kg/m3
17097 kPa	1013.8 kg/m3
17099 kPa	1013.9 kg/m3
17100 kPa	1013.9 kg/m3
17101 kPa	1013.7 kg/m3
17113 kPa	1013.8 kg/m3
17138 kPa	1013.8 kg/m3
17147 kPa	1013.8 kg/m3
17148 kPa	1013.8 kg/m3 and 1014 kg/m3
17156 kPa	1013.8 kg/m3
17174 kPa	1013.8 kg/m3
17193 kPa	1013.9 kg/m3
17211 kPa	1013.9 kg/m3
17233 kPa	1013.8 kg/m3
17252 kPa	1013.9 kg/m3
17270 kPa	1014 kg/m3
17291 kPa	1013.9 kg/m3
17309 kPa	1013.8 kg/m3
17331 kPa	1014 kg/m3
17350 kPa	1013.9 kg/m3
17373 kPa	1013.9 kg/m3
17392 kPa	1014 kg/m3
17411 kPa	1014.1 kg/m3
17430 kPa	1014 kg/m3
17453 kPa	1014.1 kg/m3
17472 kPa	1014 kg/m3
17491 kPa	1014.1 kg/m3
17514 kPa	1014.1 kg/m3
17534 kPa	1014.1 kg/m3
17555 kPa	1014 kg/m3
17574 kPa	1014.1 kg/m3
17593 kPa	1014.1 kg/m3
17616 kPa	1014.1 kg/m3
17635 kPa	1014.1 kg/m3
17656 kPa	1014 kg/m3
17672 kPa	1014.2 kg/m3
17688 kPa	1014.2 kg/m3
17708 kPa	1014 kg/m3
17723 kPa	1014.2 kg/m3
17739 kPa	1014.3 kg/m3
17758 kPa	1014.2 kg/m3
17775 kPa	1014.2 kg/m3
17791 kPa	1014.2 kg/m3
17807 kPa	1014.3 kg/m3
17827 kPa	1014.2 kg/m3
17843 kPa	1014.2 kg/m3
17861 kPa	1014.3 kg/m3
17877 kPa	1014.2 kg/m3
17892 kPa	1014.2 kg/m3
17907 kPa	1014.3 kg/m3
17925 kPa	1014.3 kg/m3
17939 kPa	1014.3 kg/m3
17954 kPa	1014.2 kg/m3
17972 kPa	1014.2 kg/m3
17987 kPa	1014.3 kg/m3
18002 kPa	1014.3 kg/m3
18020 kPa	1014.4 kg/m3
18035 kPa	1014.3 kg/m3
18050 kPa	1014.4 kg/m3
18068 kPa	1014.4 kg/m3
18083 kPa	1014.3 kg/m3
18098 kPa	1014.3 kg/m3
18116 kPa	1014.5 kg/m3
18131 kPa	1014.3 kg/m3
18146 kPa	1014.4 kg/m3
18161 kPa	1014.3 kg/m3
18179 kPa	1014.4 kg/m3
18195 kPa	1014.4 kg/m3
18210 kPa	1014.5 kg/m3
18228 kPa	1014.4 kg/m3
18243 kPa	1014.5 kg/m3
18259 kPa	1014.6 kg/m3
18277 kPa	1014.5 kg/m3
18292 kPa	1014.4 kg/m3
18308 kPa	1014.5 kg/m3
18326 kPa	1014.5 kg/m3
18341 kPa	1014.6 kg/m3
18356 kPa	1014.6 kg/m3
18375 kPa	1014.5 kg/m3
18391 kPa	1014.5 kg/m3
18407 kPa	1014.6 kg/m3
18425 kPa	1014.6 kg/m3
18441 kPa	1014.6 kg/m3
18457 kPa	1014.6 kg/m3
18472 kPa	1014.5 kg/m3
18491 kPa	1014.6 kg/m3
18506 kPa	1014.6 kg/m3
18522 kPa	1014.6 kg/m3
18541 kPa	1014.5 kg/m3
18557 kPa	1014.7 kg/m3
18576 kPa	1014.6 kg/m3
18592 kPa	1014.6 kg/m3
18608 kPa	1014.7 kg/m3
18624 kPa	1014.6 kg/m3
18643 kPa	1014.6 kg/m3
18659 kPa	1014.7 kg/m3
18676 kPa	1014.7 kg/m3
18695 kPa	1014.7 kg/m3
18711 kPa	1014.7 kg/m3
18727 kPa	1014.7 kg/m3
18746 kPa	1014.7 kg/m3
18763 kPa	1014.8 kg/m3
18779 kPa	1014.7 kg/m3
18796 kPa	1014.7 kg/m3
18815 kPa	1014.9 kg/m3
18832 kPa	1014.7 kg/m3
18848 kPa	1014.9 kg/m3
18868 kPa	1014.8 kg/m3
18884 kPa	1014.9 kg/m3
18901 kPa	1014.7 kg/m3
18917 kPa	1014.9 kg/m3
18937 kPa	1014.7 kg/m3
18954 kPa	1014.9 kg/m3
18970 kPa	1014.9 kg/m3
18990 kPa	1014.8 kg/m3
19005 kPa	1014.9 kg/m3
19024 kPa	1014.9 kg/m3
19040 kPa	1014.9 kg/m3
19057 kPa	1015 kg/m3
19075 kPa	1014.8 kg/m3
19091 kPa	1014.9 kg/m3
19107 kPa	1014.8 kg/m3
19126 kPa	1015 kg/m3
19142 kPa	1015 kg/m3
19161 kPa	1015 kg/m3
19177 kPa	1014.9 kg/m3
19193 kPa	1015 kg/m3
19212 kPa	1014.9 kg/m3
19228 kPa	1014.9 kg/m3
19245 kPa	1015.1 kg/m3
19264 kPa	1015 kg/m3
19281 kPa	1015.1 kg/m3
19297 kPa	1014.9 kg/m3
19313 kPa	1014.9 kg/m3
19333 kPa	1014.9 kg/m3
19350 kPa	1015 kg/m3
19366 kPa	1015 kg/m3
19382 kPa	1015.1 kg/m3
19402 kPa	1015 kg/m3
19418 kPa	1015.2 kg/m3
19438 kPa	1015.1 kg/m3
19455 kPa	1015.2 kg/m3
19471 kPa	1015.1 kg/m3
19488 kPa	1015.1 kg/m3
19509 kPa	1015.1 kg/m3
19525 kPa	1015.1 kg/m3
19542 kPa	1015.1 kg/m3
19559 kPa	1015.2 kg/m3
19579 kPa	1015.2 kg/m3
19596 kPa	1015.1 kg/m3
19616 kPa	1015.1 kg/m3
19633 kPa	1015.2 kg/m3
19649 kPa	1015.3 kg/m3
19666 kPa	1015.2 kg/m3
19686 kPa	1015.3 kg/m3
19703 kPa	1015.3 kg/m3
19720 kPa	1015.3 kg/m3
19741 kPa	1015.4 kg/m3
19758 kPa	1015.3 kg/m3
19778 kPa	1015.2 kg/m3
19796 kPa	1015.3 kg/m3
19813 kPa	1015.3 kg/m3
19830 kPa	1015.3 kg/m3
19851 kPa	1015.3 kg/m3
19868 kPa	1015.3 kg/m3
19885 kPa	1015.3 kg/m3
19906 kPa	1015.4 kg/m3
19922 kPa	1015.4 kg/m3
19941 kPa	1015.3 kg/m3
19957 kPa	1015.4 kg/m3
19973 kPa	1015.4 kg/m3
19989 kPa	1015.4 kg/m3
20008 kPa	1015.2 kg/m3
20024 kPa	1015.4 kg/m3
20040 kPa	1015.4 kg/m3
20059 kPa	1015.4 kg/m3
20075 kPa	1015.4 kg/m3
20094 kPa	1015.4 kg/m3
20110 kPa	1015.4 kg/m3
20126 kPa	1015.5 kg/m3
20143 kPa	1015.5 kg/m3
20162 kPa	1015.5 kg/m3
20178 kPa	1015.4 kg/m3
20194 kPa	1015.6 kg/m3
20213 kPa	1015.5 kg/m3
20228 kPa	1015.5 kg/m3
20246 kPa	1015.4 kg/m3
20262 kPa	1015.5 kg/m3
20277 kPa	1015.6 kg/m3
20293 kPa	1015.5 kg/m3
20312 kPa	1015.6 kg/m3
20328 kPa	1015.6 kg/m3
20343 kPa	1015.5 kg/m3
20362 kPa	1015.6 kg/m3
20378 kPa	1015.6 kg/m3
20395 kPa	1015.7 kg/m3
20410 kPa	1015.6 kg/m3

Reference: the NIST ThermoML archive (doi:10.1021/je060271a)
